Measurements reported in patent US11667602B2, “Compounds and their use” (AstraZeneca AB, priority 2020, dated 2023).
Converted amounts (≈) assume the structure as drawn.

How the values were obtained:
[1] = Human Plasma Protein Binding (Test B); type: in vitro ADME; conditions: fraction unbound (fu)
Protocol: Human Plasma Protein Binding (Test B)
The assay was conducted according to the Human Plasma Protein Binding Assay described in pages 167-170 of Wernevik, J. et al., “A Fully Integrated Assay Panel for Early Drug Metabolism and Pharmacokinetics Profiling”, Assay and Drug Development Technologies, 2020, 18(4), 157-179. Data are reported in Table 36 as fraction unbound (fu) (% free). Where the assay was run multiple times for the same compound, the arithmetic mean is reported.

human RXFP1 = molecular target: T1, human RXFP1 (Homo sapiens, UniProt Q9HBX9); experiment: RXFP1 Hu cAMP (Test A); type: cell-based; design: expressed in transfected cells; host or cells: Jump-In T-REx CHO-K1 cells (ThermoFisher), induced with 10 ng/ml doxycycline for 24 h; conditions: RXFP1 Hu cAMP; for EC50: read-out: Test A EC50
T1 sequence (Q9HBX9 1-757): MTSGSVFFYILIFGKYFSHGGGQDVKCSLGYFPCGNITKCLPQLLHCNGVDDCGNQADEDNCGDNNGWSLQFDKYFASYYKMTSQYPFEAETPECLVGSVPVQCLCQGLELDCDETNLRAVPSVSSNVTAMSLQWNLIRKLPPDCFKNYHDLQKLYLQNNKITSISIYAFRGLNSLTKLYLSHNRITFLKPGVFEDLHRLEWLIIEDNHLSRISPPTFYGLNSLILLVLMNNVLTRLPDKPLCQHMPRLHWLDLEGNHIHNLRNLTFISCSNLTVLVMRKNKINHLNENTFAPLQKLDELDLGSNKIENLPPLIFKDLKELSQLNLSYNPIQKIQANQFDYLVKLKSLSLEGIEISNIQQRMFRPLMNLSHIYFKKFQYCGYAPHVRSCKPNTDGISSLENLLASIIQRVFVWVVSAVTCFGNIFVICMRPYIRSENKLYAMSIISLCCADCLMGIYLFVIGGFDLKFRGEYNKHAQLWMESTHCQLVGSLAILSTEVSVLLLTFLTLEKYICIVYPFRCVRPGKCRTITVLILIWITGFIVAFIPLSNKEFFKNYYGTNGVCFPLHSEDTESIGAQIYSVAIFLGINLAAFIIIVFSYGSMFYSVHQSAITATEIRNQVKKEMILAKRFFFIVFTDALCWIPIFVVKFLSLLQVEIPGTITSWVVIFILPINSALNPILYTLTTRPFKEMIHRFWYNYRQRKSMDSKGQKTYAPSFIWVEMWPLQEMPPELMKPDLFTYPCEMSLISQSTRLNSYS
Summary of the method: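 Competitive HTRF cAMP readout (2 h, room temperature) in CHO-K1 cells stably expressing human RXFP1, induced with 10 ng/ml doxycycline for 24 h; IBMX 0.5 mM final.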

[2] = Rat Hepatocyte Stability (Test E); type: in vitro ADME; conditions: rat, hepatocytes, geometric mean if run multiple times
Protocol: Rat Hepatocyte Stability (Test E)
The assay was conducted according to the Rat Hepatocyte Stability Assay described in pages 170-174 of Wernevik, J. et al., “A Fully Integrated Assay Panel for Early Drug Metabolism and Pharmacokinetics Profiling”, Assay and Drug Development Technologies, 2020, 18(4), 157-179. Data are reported in Table 36 as mean Clint(μl/min/10^6 cells). Where the assay was run multiple times for the same compound, the geometric mean is reported.

Solubility (Test F) = type: physicochemical; conditions: arithmetic mean if run multiple times
Protocol: The assay was conducted according to the Solubility Assay described in pages 164-167 of Wernevik, J. et al., “A Fully Integrated Assay Panel for Early Drug Metabolism and Pharmacokinetics Profiling”, Assay and Drug Development Technologies, 2020, 18(4), 157-179. Data are reported in Table 36 as solubility ([…]. Where the assay was run multiple times for the same compound, the arithmetic mean is reported.

[3] = Human Liver Microsomal Stability (Test C); type: in vitro ADME; conditions: human, liver microsomes
Protocol: Human Liver Microsomal Stability (Test C)
The assay was conducted according to the Human Liver Microsome Stability Assay described in pages 170-174 of Wernevik, J. et al., “A Fully Integrated Assay Panel for Early Drug Metabolism and Pharmacokinetics Profiling”, Assay and Drug Development Technologies, 2020, 18(4), 157-179. Data are reported in Table 36 as CLint (μl/min/mg protein). Where the assay was run multiple times for the same compound, the arithmetic mean is reported.

SMILES | Test B Human Plasma Protein Binding (% free) [1] [% free] | Test A Sinf (human RXFP1) [%] | EC50 (human RXFP1) [nM] | hepatocyte CLint [2] [µL/min/1e6 cells] | solubility (Solubility (Test F)) [µM] | microsomal CLint [3] [µL/min/mg]
COc1cc(F)c(-c2ccc(C(N)=O)cc2)cc1C(=O)N[C@@H]1[C@H]2CC[C@H](C2)[C@@H]1C(=O)Nc1cccc(S(=O)(=O)C(F)(F)F)c1 [Example 434, 6-Fluoro-4-methoxy-N3-((1S,2R,3S,4R)-3-((3-((trifluoromethyl)sulfonyl)phenyl)carbamoyl)bicyclo[2.2.1]heptan-2-yl)-[1,1′-biphenyl]-3,4′-dicarboxamide] | <0.36 | 82 | 590 | 13 | 130 (≈ 82.4 µg/mL) | 110
COc1cc(F)c(O[C@H]2CC[C@@H](C(=O)O)CC2)cc1C(=O)N[C@@H]1[C@H]2CC[C@H](C2)[C@@H]1C(=O)NC1CCCCC1 [Example 9, (1S,4s)-4-(5-(((1S,2R,3S,4R)-3-(Cyclohexylcarbamoyl)bicyclo[2.2.1]heptan-2-yl)carbamoyl)-2-fluoro-4-methoxyphenoxy)cyclohexane-1-carboxylic acid] | 11 | 100 | > 7300 | 67 | 27 (≈ 14.3 µg/mL) | 9.2
COc1cc(C#N)c(O[C@H]2CC[C@@](C)(C(=O)O)CC2)cc1C(=O)N[C@@H]1[C@H]2CC[C@H](C2)[C@@H]1C(=O)NCC1(OC)CC1 [Example 111] | 31 | 100 | 680 | 18 | 860 (≈ 476 µg/mL) | < 3
COc1cc(F)c(O[C@H]2CC[C@@H](C(=O)O)CC2)cc1C(=O)N[C@@H]1[C@H]2CC[C@H](C2)[C@@H]1C(=O)Nc1c(F)cccc1F [Example 184, (1S,4s)-4-(5-(((1S,2R,3S,4R)-3-((2,6-Difluorophenyl)carbamoyl)bicyclo[2.2.1]heptan-2-yl)carbamoyl)-2-fluoro-4-methoxyphenoxy)cyclohexane-1-carboxylic acid] | 8.6 |  | > 40000 | 70 | > 1000 | 7.4
COc1cc(F)c(O[C@H]2CC[C@@H](C(=O)O)CC2)cc1C(=O)N[C@@H]1[C@H]2CC[C@H](C2)[C@@H]1C(=O)Nc1nccc(C(F)(F)F)n1 [Example 32] | 13 | 100 | > 40000 | 26 | > 1000 | 10
COc1cc(C#N)c(O[C@H]2CC[C@@](C)(C(=O)O)CC2)cc1C(=O)N[C@@H]1[C@H]2CC[C@H](C2)[C@@H]1C(=O)NCC1CC1 [Example 71, (1S,4s)-4-(2-Cyano-5-(((1S,2R,3S,4R)-3-((cyclopropylmethyl)carbamoyl)bicyclo[2.2.1]heptan-2-yl)carbamoyl)-4-methoxyphenoxy)-1-methylcyclohexane-1-carboxylic acid] | 17 |  | 390 | 28 | 940 (≈ 492 µg/mL) | < 3
COc1cc(F)c(O[C@H]2CC[C@@H](C(=O)O)CC2)cc1C(=O)N[C@@H]1[C@H]2CC[C@H](C2)[C@@H]1C(=O)Nc1cccc(C2CC2)c1 [Example 190] | 1.6 | 110 | 680 | 120 | 420 (≈ 237 µg/mL) | 23
COc1cc(F)c(O[C@H]2CC[C@@H](C(=O)O)CC2)cc1C(=O)N[C@@H]1[C@H]2CC[C@H](C2)[C@@H]1C(=O)Nc1ccc(S(F)(F)(F)(F)F)cc1 [Example 183] | 0.50 | 99 | 420 | 13 | 50 (≈ 32.5 µg/mL) | 23
COc1cc(F)c(-c2cccc(CC(=O)O)c2)cc1C(=O)N[C@@H]1CCC[C@@H]1C(=O)Nc1cccc(S(=O)(=O)C(F)(F)F)c1 [Example 318] | 0.55 | 89 | 600 | 37 | 710 (≈ 442 µg/mL) | 13
